# Literature values as cited in article PMC2742322 (Bioorganic & medicinal chemistry letters, 2008).
# Molecular target: μ-opioid receptor (Cavia porcellus, UniProt A0ACM8Q262)
# Conditions: read-out: IC50^μ (GPI); functional bioactivity
# Chain of μ-opioid receptor (A0ACM8Q262 1-400): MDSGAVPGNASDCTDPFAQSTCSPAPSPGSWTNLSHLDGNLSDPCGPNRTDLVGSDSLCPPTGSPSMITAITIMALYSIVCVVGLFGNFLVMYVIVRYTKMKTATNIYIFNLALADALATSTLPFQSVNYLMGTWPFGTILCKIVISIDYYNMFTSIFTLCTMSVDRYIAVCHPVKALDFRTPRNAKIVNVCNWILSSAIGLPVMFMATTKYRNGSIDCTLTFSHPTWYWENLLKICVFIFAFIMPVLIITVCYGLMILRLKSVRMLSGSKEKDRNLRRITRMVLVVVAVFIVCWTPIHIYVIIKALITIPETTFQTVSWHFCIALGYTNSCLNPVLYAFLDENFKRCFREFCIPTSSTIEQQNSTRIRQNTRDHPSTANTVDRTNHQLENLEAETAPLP
substance,measurement,value
Tyr^1-Pro^2-Trp^3-Phe^4-NH2 [EM-1],IC50,9.7 ± 2.21 nM
